Measured values published in patent US11945822B2, “Pyrazolo-triazine and/or pyrazolo-pxrimidine derivatives as selective inhibitor of cyclin dependent kinase” (QURIENT CO., LTD., priority 2018, dated 2024).

How the values were obtained:
CDK1/Cyclin B = target: T1, CDK1/Cyclin B (Homo sapiens, UniProt P06493); test: Enzymatic assay for CDK1 (FRET based LANCE Ultra kinase assay); type: biochemical; details: read-out: CDK1 enzymatic activity (IC50 range)
T1 construct: purchased Invitrogen PR4768C
Procedure, shortened: (§1)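 TR-FRET (LANCE Ultra) kinase assay at ATP Km, ULight-MBP peptide substrate (68 nM), 8-dose 4-fold compound series in DMSO. Enzymes: […]; 60 min at 23° C., stopped with EDTA plus Eu-anti-phospho-MBP antibody, read 665/615 nm after 60 min.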

CDK2/Cyclin A = target: T2, CDK2/Cyclin A (Homo sapiens, UniProt P24941); test: Enzymatic assay for CDK2 (FRET based LANCE Ultra kinase assay); type: biochemical; details: read-out: CDK2 enzymatic activity (IC50 range)
T2 construct: purchased Invitrogen PV6290
Procedure, shortened: as §1

CDK5/p25 = target: T3, CDK5/p25 (Homo sapiens, UniProt Q00535); test: Enzymatic assay for CDK5 (FRET based LANCE Ultra kinase assay); type: biochemical; details: read-out: CDK5 enzymatic activity (IC50 range)
T3 construct: purchased Invitrogen PR8543B
Procedure, shortened: as §1

CDK7/Cyclin H/MNAT1 = target: T4, CDK7/Cyclin H/MNAT1 (Homo sapiens, UniProt P50613); test: Enzymatic assay for CDK7 (FRET based LANCE Ultra kinase assay); type: biochemical; details: for IC50: read-out: CDK7 enzymatic activity (IC50 range)
T4 construct: purchased Invitrogen PR6749B
Procedure, shortened: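 Inhibition was measured at Km ATP by time-resolved FRET between a Eu anti-phospho antibody and a phosphorylated ULight peptide. The enzyme was the purified CDK7/cyclin complex, and data were curve-fitted.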

H460 = test: Cellular H460 viability assay (CellTiter-Glo, 72 hours); type: cell-based; details: Homo sapiens, NCI-H460
Procedure, shortened: (§2)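 Growth inhibition is assessed over a 72-hour incubation at 37 °C in 5% CO2, relative to DMSO vehicle (final concentration less than 0.1%). Luminescence from CellTiter-Glo serves as the viability signal.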

MV4-11 = test: Cellular MV4-11 viability assay (CellTiter-Glo, 72 hours); type: cell-based; details: Homo sapiens
Procedure, shortened: as §2

RPMI-8226 = test: Cellular RPMI-8226 viability assay (CellTiter-Glo, 72 hours); type: cell-based; details: Homo sapiens
Description: All cell lines were routinely tested for mycoplasma.
The effect of the CDK7 inhibitor to inhibit the growth of target cancer cells was evaluated through the 72 hours time period of viability assay. Briefly, the candidate cell line ware plated in 96 well plate at the following density of cells respectively. […] DMSO solvent without compound served as a control and final DMSO concentration less than 0.1%. After 72 hours of incubation at 37° C., 5% CO2 incubator, cells were analyzed for the viability using the CellTiter-Glo Luminescent Cell Viability Assay (Promega, Cat #G7570). All viability assays were performed in duplicate and Luminescence was read using an Envision (Perkin Elmer, USA). Data was analyzed using XLfit software.

HCT116 = test: Cellular HCT116 viability assay (CellTiter-Glo, 72 hours); type: cell-based; details: Homo sapiens, HCT-116
Procedure, shortened: as §2

T1 sequence (P06493 whole entry): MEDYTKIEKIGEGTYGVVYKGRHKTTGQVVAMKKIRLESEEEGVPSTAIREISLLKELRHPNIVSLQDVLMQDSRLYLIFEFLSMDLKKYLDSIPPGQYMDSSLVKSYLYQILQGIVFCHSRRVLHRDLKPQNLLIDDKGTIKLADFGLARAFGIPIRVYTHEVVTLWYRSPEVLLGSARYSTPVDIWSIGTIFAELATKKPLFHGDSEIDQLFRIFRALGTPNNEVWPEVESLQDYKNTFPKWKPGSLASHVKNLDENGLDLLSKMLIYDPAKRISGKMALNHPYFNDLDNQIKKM
T1 sequence (P14635 whole entry partner): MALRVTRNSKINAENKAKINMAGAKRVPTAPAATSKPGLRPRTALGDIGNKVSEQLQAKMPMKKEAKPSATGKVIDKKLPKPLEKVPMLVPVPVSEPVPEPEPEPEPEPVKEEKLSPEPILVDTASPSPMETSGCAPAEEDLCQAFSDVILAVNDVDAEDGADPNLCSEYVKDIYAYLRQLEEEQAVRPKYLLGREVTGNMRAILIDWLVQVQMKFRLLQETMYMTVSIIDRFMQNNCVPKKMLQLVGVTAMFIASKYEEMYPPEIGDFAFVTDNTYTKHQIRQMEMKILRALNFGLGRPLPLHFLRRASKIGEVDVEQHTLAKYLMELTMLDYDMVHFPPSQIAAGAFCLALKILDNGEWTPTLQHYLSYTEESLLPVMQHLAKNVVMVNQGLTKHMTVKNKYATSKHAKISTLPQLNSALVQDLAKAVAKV
T4 sequence (P50613 whole entry): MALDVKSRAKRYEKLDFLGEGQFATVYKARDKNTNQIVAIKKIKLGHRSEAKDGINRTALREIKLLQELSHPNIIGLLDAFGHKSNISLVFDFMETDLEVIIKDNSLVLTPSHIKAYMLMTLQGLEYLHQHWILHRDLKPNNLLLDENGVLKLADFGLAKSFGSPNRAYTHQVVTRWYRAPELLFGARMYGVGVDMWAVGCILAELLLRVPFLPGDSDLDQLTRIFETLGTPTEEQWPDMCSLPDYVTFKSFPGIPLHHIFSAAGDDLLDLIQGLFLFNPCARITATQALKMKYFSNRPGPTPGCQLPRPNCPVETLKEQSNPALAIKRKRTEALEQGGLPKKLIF
T4 sequence (P51946 whole entry partner): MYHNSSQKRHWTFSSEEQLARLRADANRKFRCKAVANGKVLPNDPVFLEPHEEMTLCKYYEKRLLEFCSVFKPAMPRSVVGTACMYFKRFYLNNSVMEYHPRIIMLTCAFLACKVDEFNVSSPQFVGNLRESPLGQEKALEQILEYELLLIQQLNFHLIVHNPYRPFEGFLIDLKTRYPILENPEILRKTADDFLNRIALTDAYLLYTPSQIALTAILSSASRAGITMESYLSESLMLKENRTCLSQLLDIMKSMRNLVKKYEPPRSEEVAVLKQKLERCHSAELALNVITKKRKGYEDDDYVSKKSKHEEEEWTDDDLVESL
T4 sequence (P51948 whole entry partner): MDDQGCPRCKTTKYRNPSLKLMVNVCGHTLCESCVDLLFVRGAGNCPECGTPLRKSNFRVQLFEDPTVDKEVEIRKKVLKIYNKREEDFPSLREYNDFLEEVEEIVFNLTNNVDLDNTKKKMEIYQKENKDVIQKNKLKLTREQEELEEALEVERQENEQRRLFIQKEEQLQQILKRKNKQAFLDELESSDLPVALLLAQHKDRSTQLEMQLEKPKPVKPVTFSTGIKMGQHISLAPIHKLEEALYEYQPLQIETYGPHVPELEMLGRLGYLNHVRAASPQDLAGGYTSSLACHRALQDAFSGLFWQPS
T3 sequence (Q00535 whole entry): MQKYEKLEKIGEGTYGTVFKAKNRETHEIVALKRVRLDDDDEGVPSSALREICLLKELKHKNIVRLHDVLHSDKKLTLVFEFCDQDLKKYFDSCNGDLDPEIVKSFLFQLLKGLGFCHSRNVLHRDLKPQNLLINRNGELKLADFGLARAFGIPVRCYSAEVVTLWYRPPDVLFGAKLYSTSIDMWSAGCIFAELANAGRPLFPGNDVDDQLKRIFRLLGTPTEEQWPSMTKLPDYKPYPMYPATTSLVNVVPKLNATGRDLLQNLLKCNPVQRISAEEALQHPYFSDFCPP
T3 sequence (Q15078 99-307 partner limits assumed): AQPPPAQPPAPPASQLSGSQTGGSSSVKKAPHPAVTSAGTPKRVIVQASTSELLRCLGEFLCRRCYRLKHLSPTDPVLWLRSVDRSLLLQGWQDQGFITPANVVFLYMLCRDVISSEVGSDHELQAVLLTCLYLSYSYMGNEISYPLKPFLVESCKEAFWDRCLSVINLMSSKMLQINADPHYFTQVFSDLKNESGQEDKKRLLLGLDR

Compound	IC50 (CDK1/Cyclin B) [µM]	IC50 (CDK2/Cyclin A) [µM]	IC50 (CDK5/p25) [µM]	CDK1/CDK7: Selectivity of CDK7 inhibition over CDK1 inhibition (CDK7/Cyclin H/MNAT1)	CDK2/CDK7: Selectivity of CDK7 inhibition over CDK2 inhibition (CDK7/Cyclin H/MNAT1)	CDK5/CDK7: Selectivity of CDK7 inhibition over CDK5 inhibition (CDK7/Cyclin H/MNAT1)	IC50 (CDK7/Cyclin H/MNAT1) [µM]	IC50 (H460) [µM]	IC50 (MV4-11) [µM]	IC50 (RPMI-8226) [µM]	IC50 (HCT116) [µM]
CC(C)c1cnn2c(NCc3ccccc3-c3ccc4[nH]cnc4c3)nc(N3CCC(N)CC3)nc12 [Compound 123]	0.1 to 1	0.1 to 1	< 0.1	B (B=less than 200 fold, but greater than 20 fold)	B (B=less than 200 fold, but greater than 20 fold)	C (C=less than 20 fold)	< 0.1	< 1	< 1	< 1	–
CC(C)c1cnn2c(NCc3ccccc3-c3cn4ccc(F)cc4n3)nc(N3CCC(N)CC3)nc12 [Compound 124]	0.1 to 1	0.1 to 1	< 0.1	B (B=less than 200 fold, but greater than 20 fold)	B (B=less than 200 fold, but greater than 20 fold)	C (C=less than 20 fold)	< 0.1	< 1	< 1	< 1	< 1
CC(C)c1cnn2c(NCc3ccccc3-n3cc4cc(C(=O)N5CCCC5)ccc4n3)nc(N3CCC(N)CC3)nc12 [Compound 147]	> 1	> 1	0.1 to 1	A (A=greater than 200 fold)	B (B=less than 200 fold, but greater than 20 fold)	B (B=less than 200 fold, but greater than 20 fold)	< 0.1	< 1	< 1	1 to 10	< 1
CC(C)CC(=O)Nc1cccc2cc(-c3ccccc3CNc3nc(N4CCC(N)CC4)nc4c(C(C)C)cnn34)[nH]c12 [Compound 145]	0.1 to 1	0.1 to 1	< 0.1	B (B=less than 200 fold, but greater than 20 fold)	B (B=less than 200 fold, but greater than 20 fold)	C (C=less than 20 fold)	< 0.1	< 1	< 1	< 1	< 1
CC(C)c1cnn2c(NCc3ccccc3N3CC4CCCCC4C3)nc(N3CCC(N)CC3)nc12 (centres unmarked) [Compound 135]	> 1	> 1	> 1	A (A=greater than 200 fold)	B (B=less than 200 fold, but greater than 20 fold)	B (B=less than 200 fold, but greater than 20 fold)	< 0.1	1 to 10	–	1 to 10	–
CC(=O)c1ccc2nn(-c3ccccc3CNc3nc(N4CCC(N)CC4)nc4c(C(C)C)cnn34)cc2c1 [Compound 127]	> 1	0.1 to 1	0.1 to 1	A (A=greater than 200 fold)	B (B=less than 200 fold, but greater than 20 fold)	B (B=less than 200 fold, but greater than 20 fold)	< 0.1	< 1	–	< 1	–
CC(C)c1cnn2c(NCc3ccccc3N3Cc4ccccc4C3)nc(N3CCC(N)CC3)nc12 [Compound 128]	0.1 to 1	0.1 to 1	< 0.1	B (B=less than 200 fold, but greater than 20 fold)	B (B=less than 200 fold, but greater than 20 fold)	C (C=less than 20 fold)	< 0.1	< 1	< 1	< 1	–
CC(C)c1cnn2c(NCc3ccccc3-n3cc4ccncc4n3)nc(N3CCC(N)CC3)nc12 [Compound 139]	> 1	0.1 to 1	0.1 to 1	A (A=greater than 200 fold)	B (B=less than 200 fold, but greater than 20 fold)	B (B=less than 200 fold, but greater than 20 fold)	< 0.1	< 1	< 1	< 1	< 1
CC(C)c1cnn2c(NCc3ccccc3-c3[nH]c4ccccc4c3Cl)nc(N3CCC(N)CC3)nc12 [Compound 119]	> 1	0.1 to 1	0.1 to 1	A (A=greater than 200 fold)	B (B=less than 200 fold, but greater than 20 fold)	B (B=less than 200 fold, but greater than 20 fold)	< 0.1	< 1	1 to 10	1 to 10	–
CC(C)c1cnn2c(NCc3ccccc3-c3cn4c(n3)CCCC4)nc(N3CCC(N)CC3)nc12 [Compound 122]	> 1	0.1 to 1	0.1 to 1	A (A=greater than 200 fold)	B (B=less than 200 fold, but greater than 20 fold)	B (B=less than 200 fold, but greater than 20 fold)	< 0.1	< 1	< 1	< 1	< 1
CC(C)c1cnn2c(NCc3c(Cl)cccc3-c3ccc4[nH]cnc4c3)nc(N3CCC(N)CC3)nc12 [Compound 136]	> 1	> 1	0.1 to 1	A (A=greater than 200 fold)	A (A=greater than 200 fold)	B (B=less than 200 fold, but greater than 20 fold)	< 0.1	1 to 10	< 1	1 to 10	< 1
CC(C)c1cnn2c(NCc3ccccc3-n3cc4cccc(NC(=O)CCCN(C)C)c4n3)nc(N3CCC(N)CC3)nc12 [Compound 126]	> 1	0.1 to 1	0.1 to 1	A (A=greater than 200 fold)	B (B=less than 200 fold, but greater than 20 fold)	B (B=less than 200 fold, but greater than 20 fold)	< 0.1	< 1	–	< 1	–
CC(C)c1cnn2c(NCc3cccc4ccc(N)nc34)nc(N3CCC(N)CC3)nc12 [Compound 142]	> 1	0.1 to 1	0.1 to 1	A (A=greater than 200 fold)	B (B=less than 200 fold, but greater than 20 fold)	B (B=less than 200 fold, but greater than 20 fold)	< 0.1	1 to 10	–	1 to 10	–
CC(C)c1cnn2c(NCc3ccccc3-n3cc4cc(C#N)ccc4n3)nc(N3CCC(N)CC3)nc12 [Compound 120]	> 1	0.1 to 1	0.1 to 1	A (A=greater than 200 fold)	A (A=greater than 200 fold)	B (B=less than 200 fold, but greater than 20 fold)	< 0.1	< 1	< 1	< 1	–
CC(C)c1cnn2c(NCc3ccccc3-c3ccc4[nH]c(=O)[nH]c4c3)nc(N3CCC(N)CC3)nc12 [Compound 140]	0.1 to 1	0.1 to 1	< 0.1	B (B=less than 200 fold, but greater than 20 fold)	B (B=less than 200 fold, but greater than 20 fold)	C (C=less than 20 fold)	< 0.1	1 to 10	< 1	1 to 10	–
